# Measurements: paper PMC13107025 (2025)
# Experiments:
# [1] = system: G4 (DNA, G4) GGGGAGGGGCTGGGAGGGCCCGGAGGGGGCTGGGCCGGGGACCCGGGAGGGGTCGGGACGGGGCGGGG; test: FRET melting (real-time PCR); conditions: 50 mM KCl; Tris-HCl pH 7.4; 1 μM oligonucleotide, EKB 8 eq (8 μM)
# [2] = system: k-RAS G4 (DNA, G4) AGGGCGGTGTGGGAAGAGGGAAGAGGGGGAGG; test: FRET melting (real-time PCR); conditions: 50 mM KCl; Tris-HCl pH 7.4; 1 μM oligonucleotide, EKB 8 eq (8 μM)
# [3] = system: k-RAS G4 (UV titration) (DNA, G4) AGGGCGGTGTGGGAAGAGGGAAGAGGGGGAGG; test: UV-visible absorption titration; conditions: 100 mM KCl; 10 mM Tris-HCl pH 7.4, room temperature; EKB 20 μM, G4:EKB 1:1 to 8:1
# [4] = system: c-KIT G4 (UV titration) (DNA, G4) AGGGAGGGCGCTGGGAGGAGGGG; test: UV-visible absorption titration; conditions: 100 mM KCl; 10 mM Tris-HCl pH 7.4, room temperature; EKB 20 μM, G4:EKB 1:1 to 8:1
# [5] = system: c-Myc G4 (UV titration) (DNA, G4) GCGCTTATGGGGAGGGTGGGGAGGGTGGGGAAGGTGGGGAGGAGAC; test: UV-visible absorption titration; conditions: 100 mM KCl; 10 mM Tris-HCl pH 7.4, room temperature; EKB 20 μM, G4:EKB 1:1 to 8:1
# [6] = system: c-Myc G4 (DNA, G4) GCGCTTATGGGGAGGGTGGGGAGGGTGGGGAAGGTGGGGAGGAGAC; test: FRET melting (real-time PCR); conditions: 50 mM KCl; Tris-HCl pH 7.4; 1 μM oligonucleotide, EKB 8 eq (8 μM)
# [7] = system: c-KIT G4 (DNA, G4) AGGGAGGGCGCTGGGAGGAGGGG; test: FRET melting (real-time PCR); conditions: 50 mM KCl; Tris-HCl pH 7.4; 1 μM oligonucleotide, EKB 8 eq (8 μM)
# [8] = system: Bcl-2 G4 (UV titration) (DNA, G4) CGGGCGGGAGCGCGGCGGGCGGGCGGG; test: UV-visible absorption titration; conditions: 100 mM KCl; 10 mM Tris-HCl pH 7.4, room temperature; EKB 20 μM, G4:EKB 1:1 to 8:1
# [9] = system: dsDNA (DNA, duplex) CAATCGGATCGAATTCGATCCGATTG; test: FRET melting (real-time PCR); conditions: 50 mM KCl; Tris-HCl pH 7.4; 1 μM oligonucleotide, EKB 8 eq (8 μM)
# [10] = system: Bcl-2 G4 (DNA, G4) CGGGCGGGAGCGCGGCGGGCGGGCGGG; test: FRET melting (real-time PCR); conditions: 50 mM KCl; Tris-HCl pH 7.4; 1 μM oligonucleotide, EKB 8 eq (8 μM)
structure (smiles),measurement,setting,value
CC(C)=CCc1cc(-c2cc(=O)c3c(O)cc(O)c(CC=C(C)C)c3o2)cc(O)c1O,ΔTm,[1],2.12 °C
same,ΔTm,[2],3.22 °C
same,binding,[3],yes
same,binding,[4],yes
same,binding,[5],yes
same,ΔTm,[6],3.90 °C
same,ΔTm,[7],4.17 °C
same,binding,[8],yes
same,ΔTm,[9],–1.16 °C
same,ΔTm,[10],7.09 °C
